Results published in article doi:10.1101/2023.11.24.568596v1 (biorxiv, 2023).
One block for each compound: values may come before it.

Experiments:
Conditions in all cases: binder
MSSK1 = MSSK1 (Homo sapiens, UniProt Q9UPE1)
FGFR2 = FGFR2 (Homo sapiens, UniProt P21802)
FECH = target: T1, FECH (Homo sapiens, UniProt P22830)
T1 sequence (P22830 1-423): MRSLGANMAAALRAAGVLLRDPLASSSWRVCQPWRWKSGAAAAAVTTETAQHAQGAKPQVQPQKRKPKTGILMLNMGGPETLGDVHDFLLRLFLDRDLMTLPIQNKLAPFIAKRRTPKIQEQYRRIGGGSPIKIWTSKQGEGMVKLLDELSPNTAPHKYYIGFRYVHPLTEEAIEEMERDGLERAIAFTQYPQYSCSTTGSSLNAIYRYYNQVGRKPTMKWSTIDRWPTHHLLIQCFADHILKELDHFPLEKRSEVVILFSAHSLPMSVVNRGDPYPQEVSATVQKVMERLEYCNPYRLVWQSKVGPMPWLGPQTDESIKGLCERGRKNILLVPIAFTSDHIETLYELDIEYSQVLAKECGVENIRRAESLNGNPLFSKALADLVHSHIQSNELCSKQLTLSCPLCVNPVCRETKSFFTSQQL

MELK = MELK (Homo sapiens, UniProt Q14680)
Chain of MELK (Q14680 whole entry): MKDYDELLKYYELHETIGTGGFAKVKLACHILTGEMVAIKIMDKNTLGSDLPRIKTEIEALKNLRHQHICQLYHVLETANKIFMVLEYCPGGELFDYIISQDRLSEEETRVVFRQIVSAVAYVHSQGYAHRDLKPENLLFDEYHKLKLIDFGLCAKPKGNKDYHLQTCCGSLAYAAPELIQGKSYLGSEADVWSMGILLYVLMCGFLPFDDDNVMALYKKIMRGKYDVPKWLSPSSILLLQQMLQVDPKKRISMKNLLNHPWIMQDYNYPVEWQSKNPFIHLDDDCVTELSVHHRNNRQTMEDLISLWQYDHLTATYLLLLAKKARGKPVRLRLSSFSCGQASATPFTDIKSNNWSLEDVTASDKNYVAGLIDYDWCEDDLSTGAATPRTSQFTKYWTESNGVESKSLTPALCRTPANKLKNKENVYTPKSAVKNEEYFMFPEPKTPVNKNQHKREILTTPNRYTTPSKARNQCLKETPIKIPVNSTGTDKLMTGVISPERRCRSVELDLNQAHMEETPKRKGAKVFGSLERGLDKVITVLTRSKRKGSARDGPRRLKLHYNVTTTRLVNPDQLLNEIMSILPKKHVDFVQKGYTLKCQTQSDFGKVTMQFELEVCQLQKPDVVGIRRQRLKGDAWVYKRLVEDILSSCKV

NEK1 = target: T2, NEK1 (Homo sapiens, UniProt Q96PY6)
T2 sequence (Q96PY6 1-1258): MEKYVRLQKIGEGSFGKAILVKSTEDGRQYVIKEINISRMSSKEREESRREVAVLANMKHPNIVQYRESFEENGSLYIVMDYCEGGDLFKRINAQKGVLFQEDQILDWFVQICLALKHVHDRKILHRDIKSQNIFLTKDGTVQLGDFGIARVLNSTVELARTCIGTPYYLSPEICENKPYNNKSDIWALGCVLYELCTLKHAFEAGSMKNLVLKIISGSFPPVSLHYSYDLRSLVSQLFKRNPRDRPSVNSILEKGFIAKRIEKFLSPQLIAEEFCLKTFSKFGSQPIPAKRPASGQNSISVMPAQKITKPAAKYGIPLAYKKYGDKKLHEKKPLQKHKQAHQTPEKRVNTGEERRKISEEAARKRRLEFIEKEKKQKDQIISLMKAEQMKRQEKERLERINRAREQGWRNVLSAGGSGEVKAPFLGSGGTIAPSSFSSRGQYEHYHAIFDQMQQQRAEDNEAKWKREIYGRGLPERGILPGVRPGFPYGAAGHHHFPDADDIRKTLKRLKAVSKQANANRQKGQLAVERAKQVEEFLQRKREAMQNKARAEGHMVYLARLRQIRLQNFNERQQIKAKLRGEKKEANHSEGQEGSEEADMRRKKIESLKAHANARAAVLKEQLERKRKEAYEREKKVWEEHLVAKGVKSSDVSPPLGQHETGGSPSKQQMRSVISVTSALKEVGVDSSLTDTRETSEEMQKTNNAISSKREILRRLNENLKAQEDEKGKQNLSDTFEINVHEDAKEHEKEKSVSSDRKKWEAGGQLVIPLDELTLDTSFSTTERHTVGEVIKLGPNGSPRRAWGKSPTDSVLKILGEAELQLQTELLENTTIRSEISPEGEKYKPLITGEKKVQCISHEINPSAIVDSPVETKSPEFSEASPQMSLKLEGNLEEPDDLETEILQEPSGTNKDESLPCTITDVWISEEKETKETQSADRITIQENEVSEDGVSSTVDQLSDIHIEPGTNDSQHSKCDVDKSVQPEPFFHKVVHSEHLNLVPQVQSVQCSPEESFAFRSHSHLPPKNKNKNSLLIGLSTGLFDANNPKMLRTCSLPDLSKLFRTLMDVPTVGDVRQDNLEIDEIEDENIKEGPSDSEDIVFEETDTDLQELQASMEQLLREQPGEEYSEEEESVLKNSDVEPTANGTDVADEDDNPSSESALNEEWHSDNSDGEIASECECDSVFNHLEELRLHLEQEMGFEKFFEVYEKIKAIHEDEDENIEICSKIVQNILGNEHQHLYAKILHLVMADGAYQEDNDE

p38a = p38a (Homo sapiens, UniProt Q16539)
Chain of p38a (Q16539 whole entry): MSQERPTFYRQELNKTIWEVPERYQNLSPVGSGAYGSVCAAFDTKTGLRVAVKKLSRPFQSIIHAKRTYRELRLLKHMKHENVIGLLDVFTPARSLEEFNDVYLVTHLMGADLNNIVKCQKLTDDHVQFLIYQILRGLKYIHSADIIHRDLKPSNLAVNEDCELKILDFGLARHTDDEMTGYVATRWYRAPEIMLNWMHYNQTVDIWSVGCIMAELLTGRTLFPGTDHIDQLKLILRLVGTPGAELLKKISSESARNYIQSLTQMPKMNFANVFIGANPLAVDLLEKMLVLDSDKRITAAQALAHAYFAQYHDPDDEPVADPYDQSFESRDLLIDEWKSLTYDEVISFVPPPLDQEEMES

DYRK2 = target: T3, DYRK2 (Homo sapiens, UniProt Q92630)
T3 sequence (Q92630 1-601): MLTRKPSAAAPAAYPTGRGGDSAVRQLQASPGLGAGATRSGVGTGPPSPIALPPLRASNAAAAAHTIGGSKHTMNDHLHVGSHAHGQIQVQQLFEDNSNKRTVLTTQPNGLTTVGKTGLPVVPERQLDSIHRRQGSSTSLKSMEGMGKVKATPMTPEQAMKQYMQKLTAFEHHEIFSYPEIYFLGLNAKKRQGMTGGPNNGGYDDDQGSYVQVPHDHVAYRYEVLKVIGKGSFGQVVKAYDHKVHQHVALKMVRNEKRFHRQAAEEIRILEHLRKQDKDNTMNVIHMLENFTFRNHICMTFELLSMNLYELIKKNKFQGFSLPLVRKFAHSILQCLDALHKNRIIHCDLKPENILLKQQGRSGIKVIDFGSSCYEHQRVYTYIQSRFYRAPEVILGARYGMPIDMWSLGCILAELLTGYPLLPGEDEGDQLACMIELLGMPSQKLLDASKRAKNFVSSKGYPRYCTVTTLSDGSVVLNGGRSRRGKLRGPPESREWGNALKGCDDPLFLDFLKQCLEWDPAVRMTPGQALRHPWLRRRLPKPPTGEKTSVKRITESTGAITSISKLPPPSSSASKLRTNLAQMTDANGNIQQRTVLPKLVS

Chain of MSSK1 (Q9UPE1 whole entry): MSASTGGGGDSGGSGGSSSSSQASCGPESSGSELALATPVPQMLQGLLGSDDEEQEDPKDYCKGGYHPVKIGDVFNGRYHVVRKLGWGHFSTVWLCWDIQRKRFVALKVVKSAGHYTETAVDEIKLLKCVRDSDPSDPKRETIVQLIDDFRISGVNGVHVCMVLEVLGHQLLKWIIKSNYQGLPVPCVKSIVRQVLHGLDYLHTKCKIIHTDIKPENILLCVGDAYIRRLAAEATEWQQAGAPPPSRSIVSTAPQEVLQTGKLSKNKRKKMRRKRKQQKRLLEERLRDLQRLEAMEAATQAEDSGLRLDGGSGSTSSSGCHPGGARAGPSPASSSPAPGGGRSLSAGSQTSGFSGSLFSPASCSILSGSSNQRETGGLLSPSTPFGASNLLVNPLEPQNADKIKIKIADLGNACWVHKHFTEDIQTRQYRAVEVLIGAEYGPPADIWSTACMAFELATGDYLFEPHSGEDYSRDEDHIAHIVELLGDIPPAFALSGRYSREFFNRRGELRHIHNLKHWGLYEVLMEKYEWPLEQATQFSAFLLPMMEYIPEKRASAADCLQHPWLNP
Chain of FGFR2 (P21802 whole entry): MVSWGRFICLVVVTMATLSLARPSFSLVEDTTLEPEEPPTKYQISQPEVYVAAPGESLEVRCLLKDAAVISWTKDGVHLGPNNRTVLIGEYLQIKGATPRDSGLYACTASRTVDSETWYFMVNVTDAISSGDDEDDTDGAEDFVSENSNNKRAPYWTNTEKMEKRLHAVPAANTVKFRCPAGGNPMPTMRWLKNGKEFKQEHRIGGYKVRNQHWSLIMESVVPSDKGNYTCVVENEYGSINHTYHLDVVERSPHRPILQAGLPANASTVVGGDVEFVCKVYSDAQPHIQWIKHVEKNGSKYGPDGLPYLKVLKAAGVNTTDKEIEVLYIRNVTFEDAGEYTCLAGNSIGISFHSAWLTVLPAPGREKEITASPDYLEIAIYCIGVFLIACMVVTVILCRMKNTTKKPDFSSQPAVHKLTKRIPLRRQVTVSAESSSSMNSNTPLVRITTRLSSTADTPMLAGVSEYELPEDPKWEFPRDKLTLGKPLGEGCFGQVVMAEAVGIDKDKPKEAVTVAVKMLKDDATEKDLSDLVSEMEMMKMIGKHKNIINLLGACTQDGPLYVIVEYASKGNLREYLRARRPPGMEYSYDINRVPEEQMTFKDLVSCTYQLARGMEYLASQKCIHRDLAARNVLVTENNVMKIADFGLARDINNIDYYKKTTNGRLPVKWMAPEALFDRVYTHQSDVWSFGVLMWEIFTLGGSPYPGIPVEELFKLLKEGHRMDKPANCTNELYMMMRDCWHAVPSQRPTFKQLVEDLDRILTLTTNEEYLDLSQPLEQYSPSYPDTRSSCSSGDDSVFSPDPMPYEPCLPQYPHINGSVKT

SMILES: Cc1cccc(-c2ccc(-c3cc4cnc(NCCCN5CCCC5=O)nc4n(CCCCN)c3=O)c(Cl)c2)n1 [compound 27, MR30]
ΔTm MR30 (27) (MSSK1): -0.4 °C
ΔTm MR30 (27) (FGFR2): 1.0 °C
ΔTm MR30 (27) (FECH): 0.5 °C
ΔTm MR30 (27) (MELK): 5.8 °C
ΔTm MR30 (27) (NEK1): -0.3 °C
ΔTm MR30 (27) (p38a): 3.6 °C
ΔTm MR30 (27) (DYRK2): -0.4 °C

SMILES: Cc1cccc(-c2ccc(-c3cc4cnc(Nc5ccc(CCCO)cc5)nc4n(CCCCN)c3=O)c(Cl)c2)n1 [compound 30, 8-(4-Aminobutyl)-6-(2-chloro-4-(6-methylpyridin-2-yl)phenyl)-2-((4-(3-hydroxypropyl)phenyl)amino)pyrido[2,3-d]pyrimidin-7(8H)-one]
ΔTm 30 (MSSK1): -0.2 °C
ΔTm 30 (FGFR2): 3.9 °C
ΔTm 30 (FECH): 0.5 °C
ΔTm 30 (MELK): 7.8 °C
ΔTm 30 (NEK1): -3.1 °C
ΔTm 30 (p38a): 5.5 °C
ΔTm 30 (DYRK2): -1.1 °C

SMILES: Cc1cccc(-c2ccc(-c3cc4cnc(NCCCN5CCNCC5)nc4n(CCCCN)c3=O)c(Cl)c2)n1 [compound 29, 8-(4-Aminobutyl)-6-(2-chloro-4-(6-methylpyridin-2-yl)phenyl)-2-((3-(piperazin-1-yl)propyl)amino)pyrido[2,3-d]pyrimidin-7(8H)-one]
ΔTm 29 (MSSK1): -0.3 °C
ΔTm 29 (FGFR2): 1.7 °C
ΔTm 29 (FECH): -0.4 °C
ΔTm 29 (MELK): 6.5 °C
ΔTm 29 (NEK1): 0.3 °C
ΔTm 29 (p38a): 3.2 °C
ΔTm 29 (DYRK2): -0.2 °C

More lines, now with the values ahead:

ΔTm 28 (MSSK1): -0.9 °C
ΔTm 28 (FGFR2): 3.8 °C
ΔTm 28 (FECH): 10.6 °C
ΔTm 28 (MELK): 1.8 °C
ΔTm 28 (NEK1): 0.2 °C
ΔTm 28 (p38a): 3.9 °C
ΔTm 28 (DYRK2): -0.7 °C
SMILES: Cc1cccc(-c2ccc(-c3cc4cnc(Nc5cc(C(F)(F)F)ccc5C)nc4n(CCCCN)c3=O)c(Cl)c2)n1 [compound 28, 8-(4-Aminobutyl)-6-(2-chloro-4-(6-methylpyridin-2-yl)phenyl)-2-((2-methyl-5-(trifluoromethyl)phenyl)amino)pyrido[2,3-d]pyrimidin-7(8H)-one]

ΔTm 31 (MSSK1): 0.0 °C
ΔTm 31 (FGFR2): 3.9 °C
ΔTm 31 (FECH): 2.0 °C
ΔTm 31 (MELK): 6.5 °C
ΔTm 31 (NEK1): -3.3 °C
ΔTm 31 (p38a): 4.7 °C
ΔTm 31 (DYRK2): -0.8 °C
SMILES: Cc1cccc(-c2ccc(-c3cc4cnc(Nc5ccc(O)cc5)nc4n(CCCCN)c3=O)c(Cl)c2)n1 [compound 31, 8-(4-Aminobutyl)-6-(2-chloro-4-(6-methylpyridin-2-yl)phenyl)-2-((4-hydroxyphenyl)amino) pyrido[2,3-d]pyrimidin-7(8H)-one]

ΔTm 32 (MSSK1): -0.2 °C
ΔTm 32 (FGFR2): 4.2 °C
ΔTm 32 (FECH): 3.8 °C
ΔTm 32 (MELK): 7.2 °C
ΔTm 32 (NEK1): -3.0 °C
ΔTm 32 (p38a): 5.3 °C
ΔTm 32 (DYRK2): -1.4 °C
SMILES: Cc1cccc(-c2ccc(-c3cc4cnc(Nc5ccc(C)c(O)c5)nc4n(CCCCN)c3=O)c(Cl)c2)n1 [compound 32, 8-(4-Aminobutyl)-6-(2-chloro-4-(6-methylpyridin-2-yl)phenyl)-2-((3-hydroxy-4-methylphenyl)amino)pyrido[2,3-d]pyrimidin-7(8H)-one]
